In brackets after ≈: the same amount, converted by molar mass.
What was measured:
[1] = test system: Mycobacterium tuberculosis; assay: Antimycobacterial activity against Mycobacterium tuberculosis Beijing (E-47/94) assessed as growth inhibition after 2 to 3 weeks by turbidometry; type: functional
[2] = test system: Mycobacterium tuberculosis; assay: Antimycobacterial activity against Mycobacterium tuberculosis D-211 assessed as growth inhibition after 2 to 3 weeks by turbidometry; type: functional
[3] = test system: Mycobacterium tuberculosis; assay: Antimycobacterial activity against Mycobacterium tuberculosis H37Rv ATCC 27294 assessed as growth inhibition after 2 to 3 weeks by turbidometry; type: functional
[4] = test system: Mycobacterium tuberculosis; assay: Antimycobacterial activity against wild type Mycobacterium tuberculosis H37Rv assessed as growth inhibition by resazurin assay; type: functional
[5] = Fraction unbound in human plasma at 20 uM by equilibrium dialysis technique; type: ADME, cell-free
[6] = test system: Mycobacterium tuberculosis; assay: Antimycobacterial activity against Mycobacterium tuberculosis H37Rv ATCC 27294 assessed as growth inhibition after 5 days by microdilution method; type: functional; settings: H37Rv ATCC 27294, 120 h
[7] = test system: Mycobacterium tuberculosis; assay: Antimycobacterial activity against Mycobacterium tuberculosis H37Rv ATCC 27294 assessed as reduction of colony forming units by microdilution method; type: functional
[8] = Selectivity index, ratio of IC50 human A549 cells to MIC for Mycobacterium tuberculosis; type: toxicity, cell-based; settings: read-out: Selectivity Index
[9] = Aqueous kinetic solubility of the compound in 0.1 M phosphate buffer at pH 7.4 by UV-MS analysis; type: physicochemical; settings: read-out: Kinetic_solubility
[10] = Octanol-water partition coefficient, log D of the compound by shake flask method; type: physicochemical
[11] = Inhibition of Mycobacterium smegmatis DprE1 expressed in Escherichia coli Rosetta cells using farnesyl-phosphoryl-beta-D-ribofuranose as substrate by fluorescence analysis; design: species or system Mycolicibacterium smegmatis
[12] = Inhibition of Mycobacterium smegmatis DprE1 Y321H mutant expressed in Escherichia coli Rosetta cells using farnesyl-phosphoryl-beta-D-ribofuranose as substrate by fluorescence analysis; design: species or system Mycolicibacterium smegmatis
[13] = test system: Mycolicibacterium smegmatis; assay: Ratio of IC50 for wild type Mycobacterium smegmatis DprE1 expressed in Escherichia coli Rosetta cells to IC50 for Mycobacterium smegmatis DprE1 C394G mutant expressed in Escherichia coli Rosetta cells
[14] = Inhibition of Mycobacterium smegmatis DprE1 C394G mutant expressed in Escherichia coli Rosetta cells using farnesyl-phosphoryl-beta-D-ribofuranose as substrate by fluorescence analysis; design: species or system Mycolicibacterium smegmatis
[15] = test system: Mycolicibacterium smegmatis; assay: Ratio of IC50 for Mycobacterium smegmatis DprE1 Y321H mutant expressed in Escherichia coli Rosetta cells to IC50 for wild type Mycobacterium smegmatis DprE1 expressed in Escherichia coli Rosetta cells
[16] = test system: Mycobacterium tuberculosis; assay: Antimycobacterial activity against Mycobacterium tuberculosis H37Rv assessed as log reduction in colony forming units on day 10 by two-fold serial dilution method; type: functional
[17] = test system: Mycolicibacterium smegmatis; assay: Ratio of IC50 for Mycobacterium smegmatis DprE1 C394G mutant expressed in Escherichia coli Rosetta cells to IC50 for wild type Mycobacterium smegmatis DprE1 expressed in Escherichia coli Rosetta cells
[18] = test system: Mycobacterium tuberculosis; assay: Antimycobacterial activity against Mycobacterium tuberculosis H37Rv infected in human THP-1 cells assessed as log reduction in colony forming units at 16 uM incubated for 7 days measured after 21 to 28 days; type: functional
[19] = test system: Mycobacterium tuberculosis; assay: Antimycobacterial activity against Mycobacterium tuberculosis H37Rv assessed as bacterial killing by two-fold serial dilution method; type: functional, organism-based; settings: TDE = time-dependent effect

| SMILES | MIC [4] | MIC [6] | MBC [7] | IC50 [11] | other results |
| --- | --- | --- | --- | --- | --- |
| CC1COc2c(N3CCN(C)CC3)c(F)cc3c(=O)c(C(=O)O)cn1c23 (stereo unspecified) [OFLOXACIN] |  |  |  |  | MIC [1]: 0.7 µM (≈ 0.253 µg/mL); MIC [2]: 0.7 µM (≈ 0.253 µg/mL); MIC [3]: 0.7 µM (≈ 0.253 µg/mL) |
| NNC(=O)c1ccncc1 [ISONIAZID] | 5 µM (≈ 0.686 µg/mL) |  |  |  | MIC [1]: 0.2 µM (≈ 0.0274 µg/mL); MIC [2]: 0.2 µM (≈ 0.0274 µg/mL); MIC [3]: 0.2 µM (≈ 0.0274 µg/mL) |
| O=c1[nH]c2c(cc1CNCc1cccc(C(F)(F)F)c1)c(C1CC1)nn2-c1ccccc1 | > 0.1 µM | 1.5 µM (≈ 0.658 µg/mL) | 2.8 µM (≈ 1.23 µg/mL) | 40 nM | fraction unbound at 20 µM [5]: 0.01; selectivity ratio [8]: 10; solubility kinetic [9]: 1 µM (≈ 0.438 µg/mL); MIC [1]: 1.6 µM (≈ 0.702 µg/mL); MIC [2]: 1.6 µM (≈ 0.702 µg/mL); logD [10]: 3.9; MIC [3]: 1.6 µM (≈ 0.702 µg/mL) |
| O=c1[nH]c2c(cc1CNCc1cccc(C(F)(F)F)n1)c(C1CC1)nn2-c1ccccc1 | > 0.1 µM | 3.1 µM (≈ 1.36 µg/mL) | 5.6 µM (≈ 2.46 µg/mL) | 50 nM | fraction unbound at 20 µM [5]: 0.011; IC50 [12]: 6100 nM; Ratio IC50 [13]: 6; selectivity ratio [8]: 20; solubility kinetic [9]: 153 µM (≈ 67.2 µg/mL); logD [10]: 3.2; IC50 [14]: 20 nM; Ratio IC50 [15]: 40 |
| Cc1nn(-c2ccccc2)c2[nH]c(=O)c(CN3CCc4ccc(C(F)(F)F)cc4C3)cc12 |  | > 100 µM |  | 6200 nM |  |
| Cc1ccc(-n2nc(C)c3cc(CNCc4cccc(C(F)(F)F)c4)c(=O)[nH]c32)cc1 |  | 12.5 µM (≈ 5.33 µg/mL) | 12.5 µM (≈ 5.33 µg/mL) | 600 nM |  |
| CC[C@@H](CO)NCCN[C@@H](CC)CO [ETHAMBUTOL] |  |  |  |  | MIC [1]: 2 µM (≈ 0.409 µg/mL); MIC [2]: 2 µM (≈ 0.409 µg/mL); MIC [3]: 2 µM (≈ 0.409 µg/mL) |
| Cc1ccc(C(F)(F)F)cc1CNCc1cc2c(C3CC3)nn(-c3ccccc3)c2[nH]c1=O | 0.002 µM (≈ 0.000905 µg/mL) | 0.1 µM (≈ 0.0452 µg/mL) | < 0.5 µM | 10 nM | fraction unbound at 20 µM [5]: < 0.01; log10cfu [16]: >4; Ratio IC50 [17]: 1; IC50 [12]: 7400 nM; log10cfu [18]: 1; selectivity ratio [8]: > 250; solubility kinetic [9]: < 1 µM; logD [10]: 3.9; Activity [19]: tde; Ratio IC50 [15]: 740 |
| Cc1ccc(C(F)(F)F)cc1CNCc1cc2c(C)nn(-c3ccccc3)c2[nH]c1=O |  | 0.8 µM (≈ 0.341 µg/mL) | 1.2 µM (≈ 0.512 µg/mL) | 7 nM | fraction unbound at 20 µM [5]: < 0.01; Ratio IC50 [17]: 1; IC50 [12]: 1500 nM; selectivity ratio [8]: 20; solubility kinetic [9]: 55 µM (≈ 23.5 µg/mL); logD [10]: 3.7; IC50 [14]: 10 nM; Ratio IC50 [15]: 150 |
| Cc1nn(-c2ccccc2)c2[nH]c(=O)c(CNCc3cccc(C#N)c3)cc12 |  | > 100 µM |  | 2600 nM |  |
| CCOC(=O)NC(=O)c1ccsc1NC(=O)c1nc2ccccc2s1 | 0.5 µM (≈ 0.188 µg/mL) |  |  |  |  |
| Cc1nn(-c2ccccc2)c2[nH]c(=O)c(C(=O)NCc3cccc(C(F)(F)F)c3)cc12 |  | > 100 µM |  | 1000 nM |  |
| CO[C@H]1/C=C/O[C@@]2(C)Oc3c(C)c(O)c4c(O)c(c(/C=N/N5CCN(C)CC5)c(O)c4c3C2=O)NC(=O)/C(C)=C\C=C\[C@H](C)[C@H](O)[C@@H](C)[C@@H](O)[C@@H](C)[C@H](OC(C)=O)[C@@H]1C [RIFAMPIN] |  |  |  |  | MIC [1]: 0.02 µM (≈ 0.0165 µg/mL); MIC [2]: 0.02 µM (≈ 0.0165 µg/mL); MIC [3]: 0.02 µM (≈ 0.0165 µg/mL) |
| Cc1ccc(C(F)(F)F)cc1CNCc1cc2c(C(C)C)nn(-c3ccccc3)c2[nH]c1=O |  | 0.4 µM (≈ 0.182 µg/mL) | < 0.5 µM | < 5 nM | fraction unbound at 20 µM [5]: < 0.01; selectivity ratio [8]: 35; solubility kinetic [9]: 10 µM (≈ 4.54 µg/mL); logD [10]: > 4.4 |
| CN[C@@H]1[C@H](O[C@H]2[C@H](O[C@H]3[C@H](O)[C@@H](O)[C@H](N=C(N)N)[C@@H](O)[C@@H]3N=C(N)N)O[C@@H](C)[C@]2(O)C=O)O[C@@H](CO)[C@H](O)[C@H]1O [STREPTOMYCIN] |  |  |  |  | MIC [1]: 0.3 µM (≈ 0.174 µg/mL); MIC [2]: 0.3 µM (≈ 0.174 µg/mL); MIC [3]: 0.3 µM (≈ 0.174 µg/mL) |
| Cc1ccc(CNCc2cc3c(C)nn(-c4ccccc4)c3[nH]c2=O)cc1C |  | 25 µM (≈ 9.31 µg/mL) | 50 µM (≈ 18.6 µg/mL) | 1200 nM |  |

| SMILES | MIC [4] | MIC [6] | MBC [7] | IC50 [11] | other results |
| --- | --- | --- | --- | --- | --- |
| COc1ncnc(Cn2cc(C(=O)NCCF)c3ncccc32)c1C | 1.51 µM (≈ 0.52 µg/mL) |  |  | 5 nM |  |
| Cc1ccc(C(F)(F)F)nc1CNCc1cc2c(C3CC3)nn(-c3ccccc3)c2[nH]c1=O |  | 1.5 µM (≈ 0.68 µg/mL) | 1.6 µM (≈ 0.726 µg/mL) | 10 nM | fraction unbound at 20 µM [5]: < 0.01; selectivity ratio [8]: 10; solubility kinetic [9]: 1 µM (≈ 0.453 µg/mL); logD [10]: 3.4 |
| O=c1[nH]c2c(cc1CNCc1cc(C(F)(F)F)ccc1F)c(C1CC1)nn2-c1ccccc1 | 0.002 µM (≈ 0.000913 µg/mL) | 1.6 µM (≈ 0.73 µg/mL) | 4.4 µM (≈ 2.01 µg/mL) | 40 nM | IC50 [12]: 4500 nM; Ratio IC50 [13]: 4; IC50 [14]: 10 nM; Ratio IC50 [15]: 107 |
| Cc1nn(-c2ccccn2)c2[nH]c(=O)c(CNCc3cccc(C(F)(F)F)c3)cc12 |  | > 100 µM |  |  |  |
| Cc1nn(-c2ccccc2)c2[nH]c(=O)c(CNCc3ccccc3)cc12 |  | > 100 µM |  | 1400 nM |  |
| Cc1nn(C)c2[nH]c(=O)c(CNCc3cccc(C(F)(F)F)c3)cc12 |  | > 100 µM |  | > 100000 nM |  |
| C[C@@H](NC(=O)c1cc([N+](=O)[O-])cc(C(F)(F)F)c1)c1ccccc1 | 0.943 µM (≈ 0.319 µg/mL) |  |  |  |  |
| Cc1cccc(CNCc2cc3c(C)nn(-c4ccccc4)c3[nH]c2=O)c1 |  | 100 µM (≈ 35.8 µg/mL) | 100 µM (≈ 35.8 µg/mL) | 2800 nM |  |
| O=c1[nH]c2c(cc1CNCc1cccc(C(F)(F)F)c1F)c(C1CC1)nn2-c1ccccc1 | 0.003 µM (≈ 0.00137 µg/mL) | 1.6 µM (≈ 0.73 µg/mL) | 4.1 µM (≈ 1.87 µg/mL) | < 5 nM | IC50 [12]: 8200 nM; Ratio IC50 [13]: 4; IC50 [14]: 60 nM; Ratio IC50 [15]: 38 |
| Cc1nn(-c2ccccc2)c2[nH]c(=O)c(CNCc3cccc(F)c3)cc12 |  | 75 µM (≈ 27.2 µg/mL) | 100 µM (≈ 36.2 µg/mL) | 2000 nM |  |
| C[C@H]1COC2(CCN(c3nc(=O)c4cc(C(F)(F)F)cc([N+](=O)[O-])c4s3)CC2)O1 [BTZ-043] | 0.003 µM (≈ 0.00129 µg/mL) |  |  | 5 nM |  |
| COc1nc2c(cc1CNCc1cccc(C(F)(F)F)c1)c(C)nn2-c1ccccc1 |  | > 100 µM |  | > 10000 nM |  |
| Cc1nn(-c2ccccc2)c2[nH]c(=O)c(CNCc3cccc(C(F)(F)F)c3)cc12 | > 0.1 µM | 3.1 µM (≈ 1.28 µg/mL) | 8.5 µM (≈ 3.51 µg/mL) | 400 nM | MIC [1]: 3.1 µM (≈ 1.28 µg/mL); MIC [2]: 3.1 µM (≈ 1.28 µg/mL); MIC [3]: 3.1 µM (≈ 1.28 µg/mL) |
| Cc1nn(-c2ccccc2)c2c1cc(CNCc1cccc(C(F)(F)F)c1)c(=O)n2C |  | > 100 µM |  | > 10000 nM |  |
| Cc1nn(-c2ccccc2)c2[nH]c(=O)c(CN(C)Cc3cccc(C(F)(F)F)c3)cc12 |  | 1 µM (≈ 0.426 µg/mL) |  | 60 nM |  |

Source: ChEMBL document CHEMBL3259779, “Discovery of pyrazolopyridones as a novel class of noncovalent DprE1 inhibitor with potent anti-mycobacterial activity” (J Med Chem, 2014)
